Measurements published in paper PMC12018048, “Intranasal kisspeptin administration rapidly stimulates gonadotropin release in humans” (eBioMedicine, 2025).

Key:
[1] = test system: plasma LH; assay: Intranasal kisspeptin-54, plasma LH in adult C57BL/6J male mice; type: in vivo, mouse; conditions: for Peak plasma LH level / Integrated LH response, AUC: mean ± SEM; for Peak plasma LH level, mean difference vs placebo: two-way ANOVA; for Integrated LH response, AUC: sampling over 70 min
Experimental: Saline (placebo) or kisspeptin-54 were intranasally administered using a customised and unsharpened 2 mm long and 0.3 mm wide hypodermic needle (BD PrecisionGlide™; 30G; ref. 305106). Male mice were restrained and a single volume of 30 μL of the solution was delivered in one randomly chosen nostril with either 0.9% saline or different concentrations of kisspeptin-54 (1, 3, 12.8, 30, or 50 nM; equivalent to 0.001–0.05 nmol/kg). The protocol involved N = 5 mice per group, except concentrations 12.8 nM where N = 6 and 30 nM where N = 7. […] LH levels were assessed using a tail-tip serial blood sampling as previously reported.[64]^,[65] Briefly, samples containing 4 μL of whole blood were collected every 10 min over a 70-min-long period from each animal. The first sampling point was taken as baseline LH level (−5 min), and saline or kisspeptin-54 were administered at timepoint 0 min. Whole blood was collected into Eppendorf tubes pre-loaded with 50 μL of 0.1 M phosphate-buffered saline (PBS)-0.05% Tween, thoroughly mixed, and snap-frozen with dry ice and stored at −80 °C.
LH levels were measured using an established in-house and ultrasensitive mouse LH ELISA method as previously validated.[66] A primary coating antibody (bovine LHβ subunit, 518B7; L. Sibley; University of California, UC Davis, RRID AB_2756886) was used at a 1:1000 dilution in combination with a detection primary antibody (rabbit LH antiserum, AFP240580Rb, RRID AB_2665533; NIDDK- NHPP) used at 1:10,000 dilution, and a secondary horseradish peroxidase-conjugated antibody (goat anti-rabbit; Vector Laboratories, PI-1000, RRID AB_2336198) used at 1:10,000 dilution. The assay standard curve used a mouse LH-RP (AFP5306A, A. F. Parlow, National Hormone and Peptide Program; supplied by Golden West BioSolutions, California, USA; catalogue # TLIA1053.03). The assay sensitivity of this LH ELISA was 0.04 ng/mL, intra-assay coefficient of variation 4.1%, and inter-assay coefficient of variation 7.3%.
Statistical analyses were performed using GraphPad Prism (version 9.4.1). Data are presented as mean ± SEM. Normality of the data was determined using the Shapiro–Wilk test. The analysis considered increment in LH levels when average post-administration values were above significance (P < 0.05) compared to basal levels (−5 min) using repeated measures two-way ANOVA with Fishers least significant difference (LSD) test. Integrated LH response to kisspeptin-54 administration as indicated using the area under the curve (AUC) analysis when all peaks were above baseline values. The difference in AUC between groups was compared by one-way ANOVA with Fisher’s LSD test. In all cases, P < 0.05 was considered statistically significant.

[2] = Kisspeptin-54 powder particle size and shape analysis (Morphologi 4); type: physicochemical
Experimental: Particle size and shape analysis of the kisspeptin-54 powder was performed using a Morphologi 4 (Malvern Instruments, Worcestershire, UK). Particles were readily dispersed using the dispersion unit at low energy level. Bright field illumination was used for microscopic visualisation of the particles with the light intensity calibrated to 70%. The samples were scanned using the 20× objective lens over a scan area of 4.5 mm by 4.5 mm with a trash size of 10 pixels.

[3] = test system: LH; conditions: mice, intraperitoneal route, 1 nM; cited from earlier work

Substance: Kisspeptin-54
- LH AUC, mean difference vs kisspeptin 1 nM ([1]; intranasal 3 nM vs 1 nM): 3.6 ng·h/mL
- Time of peak LH level after intranasal administration ([1]; intranasal 12.8 nM): 25 min
- LH AUC, mean difference vs kisspeptin 1 nM ([1]; intranasal 12.8 nM vs 1 nM): 22.7 ng·h/mL
- LH AUC, mean difference vs kisspeptin 3 nM ([1]; intranasal 12.8 nM vs 3 nM): 19.1 ng·h/mL
- LH AUC, mean difference vs placebo ([1]; intranasal 12.8 nM vs placebo): 17.2 ng·h/mL
- Peak plasma LH level ([1]; intranasal 12.8 nM, at 25 min, N = 6): 1.9 ± 0.4 ng/mL
- Peak plasma LH level, mean difference vs placebo ([1]; intranasal 12.8 nM, at 25 min): 1.1 ng/mL
- Time of peak LH level after intranasal administration ([1]; intranasal 30 nM): 25 min
- LH AUC, mean difference vs kisspeptin 1 nM ([1]; intranasal 30 nM vs 1 nM): 74.2 ng·h/mL
- LH AUC, mean difference vs kisspeptin 3 nM ([1]; intranasal 30 nM vs 3 nM): 70.7 ng·h/mL
- LH AUC, mean difference vs kisspeptin 12.8 nM ([1]; intranasal 30 nM vs 12.8 nM): 51.6 ng·h/mL
- LH AUC, mean difference vs placebo ([1]; intranasal 30 nM vs placebo): 68.7 ng·h/mL
- Peak plasma LH level ([1]; intranasal 30 nM, at 25 min, N = 7): 3.6 ± 0.4 ng/mL
- Peak plasma LH level, mean difference vs placebo ([1]; intranasal 30 nM, at 25 min): 2.8 ng/mL
- Time of peak LH level after intranasal administration ([1]; intranasal 50 nM): 15 min
- LH AUC, mean difference vs kisspeptin 1 nM ([1]; intranasal 50 nM vs 1 nM): 92.8 ng·h/mL
- LH AUC, mean difference vs kisspeptin 3 nM ([1]; intranasal 50 nM vs 3 nM): 89.3 ng·h/mL
- LH AUC, mean difference vs kisspeptin 12.8 nM ([1]; intranasal 50 nM vs 12.8 nM): 70.2 ng·h/mL
- LH AUC, mean difference vs kisspeptin 30 nM ([1]; intranasal 50 nM vs 30 nM): 18.6 ng·h/mL
- LH AUC, mean difference vs placebo ([1]; intranasal 50 nM vs placebo): 87.3 ng·h/mL
- Peak plasma LH level ([1]; intranasal 50 nM, at 15 min, N = 5): 4.0 ± 1.0 ng/mL
- Peak plasma LH level, mean difference vs placebo ([1]; intranasal 50 nM, at 15 min): 2.9 ng/mL
- Integrated LH response, AUC ([1]; intranasal 30 μL of 1 nM, N = 5): 75.5 ± 6.3 ng·h/mL
- Integrated LH response, AUC ([1]; intranasal 30 μL of 3 nM, N = 5): 79.1 ± 5.8 ng·h/mL
- Integrated LH response, AUC ([1]; intranasal 30 μL of 12.8 nM, N = 6): 98.2 ± 15.5 ng·h/mL
- Integrated LH response, AUC ([1]; intranasal 30 μL of 30 nM, N = 7): 149.7 ± 13.3 ng·h/mL
- Integrated LH response, AUC ([1]; intranasal 30 μL of 50 nM, N = 5): 168.3 ± 38.5 ng·h/mL
- Adverse effects leading to pain, distress, or illness ([1]; intranasal, first 72-h follow-up period): did not observe any adverse effects
- Particle shape ([2]; Morphologi 4): irregular-shaped particles
- Proportion of particles in the 20–50 μm range ([2]; Morphologi 4): over 40%
- Circular equivalent diameter range of powder particles ([2]; Morphologi 4, N = 55,421 particles): 0.5–113 μm
- Powder particle size range (particles largely within) ([2]; Morphologi 4 static automated imaging): 10–110 μm
- Effect on LH [3]: robustly increases LH
